What was measured:
[1] = From the text: The term “solubility” used herein in regard to water solubility includes cases where the sample completely dissolves in deionized water to form a homogeneous mixture, and cases where the sample is completely emulsified. Here, “completely” means that no mass of the sample remains in the deionized water.
[2] = Surface tension of blood containing blood modifying agent, pendant drop method; details: 0.10 mass % in sheep defibrinated blood, 35 ° C.
Protocol: The surface tension of blood containing a blood modifying agent was measured by the pendant drop method, using a Drop Master500 contact angle meter by Kyowa Interface Science Co., Ltd. The surface tension was measured after adding a prescribed amount of blood modifying agent to sheep defibrinated blood, and thoroughly shaking. The measurement was accomplished automatically with a device, and the surface tension γ was determined by the following formula (see FIG. 13). γ=g×ρ×(de)^2×1/H The density ρ was measured at the temperatures listed in Table 5, according to JIS K 2249-1995, “Density test methods and density/mass/volume conversion tables”, “5. Vibrating density test method”. The measurement was accomplished using a DA-505 by Kyoto Electronics Co., Ltd.

Water solubility [1] [g]	Compound	Surface tension [2] [mN/m]
<0.05	CCCCCCCC(=O)OCC(COC(=O)CCCCCCC)OC(=O)CCCCCCC [PANACET 800]	–
–	CCCCCCCCCCCCOC(=O)CCCCCCCCCCC [ELECTOL WE20, Ester of dodecanoic acid (C12) and dodecyl alcohol (C12)]	58.8
